The source of these data is patent US9499509B2, “Dihydrochalcone derivatives and their use as antibiotic agents” (UNIVERSITÉ DU QUÉBEC À CHICOUTIMI, priority 2012, dated 2016).

Converted amounts (≈) assume the structure as drawn. Where two headings read alike, the source gives them in different places.

In series [1] the test system is WS-1 cell lines. Nature of the series: Cytotoxicity assay on WS-1 (Example 2). The series is classed as cell-based. The conditions noted are these: Table 7; WS-1, 48 h. Set-up: unit not given here. The protocol: Cytotoxicity assay. […] The WS-1 cell lines were provided by ATCC. […] The compounds tested were then added at 8 different concentrations. […] In Table 7, the therapeutic indexes of compounds IV to XXI are presented.

The subject of series [2] is MRSA strains. Nature of the series: Antibiotic assay (absorption 660 nm, Example 2), MRSA strains. It counts as cell-based, Staphylococcus aureus. As for the experimental part:
(§1) Antibiotic agents. Gentamicin sulfate was provided by Calbiochem. Chloramphenicol was provided by Sigma-Aldrich.
(§2) Antibiotic assay. […] The bacteria strains were inoculated in nutrients broth. […] All bacteria were plated in nutrients broth at a concentration of 450 000 bacteria/m L.
(§3) Compounds IV to XXI were diluted in dimethylsulfoxide. […] The compounds were tested at 8 different concentrations.
(§4) Each well contained: 100 μL of bacteria, 100 μL of the compounds tested. The plates were incubated at 37° C. for 6 h. The absorption was read using a Varioskan flash multimode Reader™ (Thermo Scientific) at 660 nm.
(§5) MRSA. Ten (10) strains of MRSA obtained as described above were tested along with an S. aureus wild type (WT) strain (ATCC 25923).

The test system of series [3] is S. aureus wild type strain (ATCC 25923). Nature of the series: Antibiotic assay (absorption 660 nm, Example 2), S. aureus wild type. The series is classed as cell-based, Staphylococcus aureus. The settings on record: for MIC: S. aureus WT (ATCC 25923); for S. aureus WT ATCC 25923 (toxicity on bacteria): Table 7, same values as MIC of Table 6. As for the experimental part: as §1, §2, §3, §4, §5

In series [4] the test system is MRSAs (1, 2 and 3). Nature of the series: Antibiotic assay of extracts and fractions (resazurin, Example 6), MRSA 1, 2 and 3. It counts as cell-based, Staphylococcus aureus. From the text:
(§6) Antibiotic agents. Gentamicin sulfate was provided by Calbiochem.

Series [5] has as its system S. aureus wild type strain (ATCC25923). Nature of the series: Antibiotic assay of extracts and fractions (resazurin, Example 6), S. aureus wild type. It counts as cell-based, Staphylococcus aureus. The conditions noted are these: S. aureus WT.
Description: as §6

Series [6] has as its system Corynebacterium jeikeium. Description: Antibiotic assay (resazurin, Example 1), Corynebacterium jeikeium. The series is classed as cell-based. The settings on record: Coryne. jeikeium 14139. As for the experimental part: (§7) Bacteria Strain. […] The MRSA were obtained as further described below.
(§8) Antibiotic agents. Cyprofloxacin and erythromycin were provided by Sigma-Aldrich. Gentamicin sulfate and vancomycin hydrochloride were provided by Calbiochem.
(§9) Five additional strains were tested: Streptococcus pneumoniae, Streptococcus agalactiae, Streptococcus pyogenes, Enterococcus faecalis and Corynebacterium jeikeium.

Series [7] deals with Enterococcus faecalis. Nature of the series: Antibiotic assay (resazurin, Example 1), Enterococcus faecalis. The settings on record: for IC50: read-out: IC50. It counts as cell-based. As for the experimental part: as §7, §8, §9
For series [8], the system named is E. coli (ATCC25922). Description: Antibiotic assay of extracts and fractions (resazurin, Example 6), E. coli. The series is classed as cell-based.
Description: as §6

The test system of series [9] is Streptococcus agalactiae. Description: Antibiotic assay (resazurin, Example 1), Streptococcus agalactiae. The series is classed as cell-based. The conditions noted are these: for IC50: read-out: IC50. As for the experimental part:
as §7, §8, §9

Series [10] relates to Streptococcus pyogenes. Description: Antibiotic assay (resazurin, Example 1), Streptococcus pyogenes. The series is classed as cell-based. The conditions noted are these: for IC50: read-out: IC50. As for the experimental part: as §7, §8, §9
Series [11] deals with Streptococcus pneumoniae. Description: Antibiotic assay (resazurin, Example 1), Streptococcus pneumoniae. The series is classed as cell-based. The conditions noted are these: for IC50: read-out: IC50. The protocol: as §7, §8, §9
For series [12], the system named is S. epidermidis. Description: Antibiotic assay (resazurin, Example 1), S. epidermidis strains.
Description: The antibiotic assays were performed in 96-well plates (BD Falcon). The bacteria strains were inoculated in Nutrient Broth (BD) for the gram negative bacteria and Tryptic soy broth (BD) with 10% of defibrinated sheep blood (PML microbiological) for gram positive strain. All bacteria strains were dosed by spectrophotometry at 660 nm where 1 D.O=2×10^8 bacteria/mL. All bacteria were plated in their respective broth at a concentration of 450 000 bacteria/mL.
Compounds I, II and III were diluted in methanol and the above-noted antibiotic agents were diluted in water. The solvent concentration was 0.25%, which was not toxic for the bacteria. Compounds I, II and III and the above-noted antibiotic agents were tested at 8 different concentrations.
Each well contained: 100 μL of bacteria, 50 μL of the compounds tested (compound I, II, III or the above-noted antibiotic agent) and 50 μL of a 4% resazurin (Sigma) solution. The plates were incubated at 37° C. for 5 h. The fluorescence was read using a Fluoroskan Ascent™ FL (thermo) using an excitation wavelength of 530 nm and an emission wavelength of 590 nm.
Two different strains of Staphylococcus were tested, namely the S. epidermidis and the S. aureus strains.
The subject of series [13] is S. aureus. Nature of the series: Antibiotic assay (resazurin, Example 1), S. aureus strains of Table 3. It counts as cell-based, Staphylococcus aureus. The conditions noted are these: for IC50: read-out: IC50.
Description: as §7, §8

Regarding `O=C(CCc1ccccc1)c1c(O)cc2c(c1O)CC(O)C(c1ccc(O)cc1)O2` (stereo not drawn) [XV], in series [1], the “WS-1 (toxicity on normal cells, fibroblast)” value is given as >50. Besides, the MIC in series [2] (MRSA 1) turned out to be 24.3 ± 0.9 µM (≈ 9.88 µg/mL); in series [2] (MRSA 2), 27 ± 1 µM (≈ 11 µg/mL); in series [2] (MRSA 3) it was 29 ± 3 µM (≈ 11.8 µg/mL); in series [2] (MRSA 4), 22 ± 2 µM (≈ 8.94 µg/mL); in [2] (MRSA 5) it was 18 ± 2 µM (≈ 7.32 µg/mL); in series [2] (MRSA 6) it was 18.9 ± 0.4 µM (≈ 7.68 µg/mL). The MIC in series [2] (MRSA 7) was 20 ± 1 µM (≈ 8.13 µg/mL); in [2] (MRSA 8), 17 ± 2 µM (≈ 6.91 µg/mL); in [2] (MRSA 9), 30 ± 1 µM (≈ 12.2 µg/mL); in series [2] (MRSA 10), 7.8 ± 0.3 µM (≈ 3.17 µg/mL); in series [3] it was 13 ± 1 µM (≈ 5.28 µg/mL). Moreover, in series [3], the “S. aureus WT ATCC 25923 (toxicity on bacteria)” value amounted to 13 ± 1.
As to `COc1ccc(CCC(=O)c2c(O)cc(O)c3c2OC(c2ccc(O)cc2)C(O)C3)cc1` (stereo not drawn) [XXI], the “WS-1 (toxicity on normal cells, fibroblast)” value in series [1] is >50. Moreover, the MIC in [2] (MRSA 1) was found to be 17 ± 2 µM (≈ 7.42 µg/mL); in series [2] (MRSA 2), 7 ± 2 µM (≈ 3.06 µg/mL); in series [2] (MRSA 3), 8.5 ± 0.6 µM (≈ 3.71 µg/mL); in series [2] (MRSA 4), 12.3 ± 0.5 µM (≈ 5.37 µg/mL); in series [2] (MRSA 5), 7.7 ± 0.6 µM (≈ 3.36 µg/mL); in series [2] (MRSA 6), 12 ± 1 µM (≈ 5.24 µg/mL). Besides, the MIC was found to be 11.4 ± 0.5 µM (≈ 4.98 µg/mL) in series [2] (MRSA 7); 8.2 ± 0.2 µM (≈ 3.58 µg/mL) in series [2] (MRSA 8); 10.8 ± 0.8 µM (≈ 4.71 µg/mL) in series [2] (MRSA 9); 12 ± 1 µM (≈ 5.24 µg/mL) in [2] (MRSA 10); 28 ± 2 µM (≈ 12.2 µg/mL) in series [3]. In addition, the “S. aureus WT ATCC 25923 (toxicity on bacteria)” value in [3] came to 28 ± 2.
Take `COc1ccc(CCC(=O)c2c(O)cc(O)c3c2OC(c2ccc(O)cc2)C(O)C3)cc1` (stereo not drawn) [XX]: the “WS-1 (toxicity on normal cells, fibroblast)” value in [1] is reported as >50. The MIC in series [2] (MRSA 1) is 14 ± 1 µM (≈ 6.11 µg/mL); in [2] (MRSA 2) it was 11.4 ± 0.5 µM (≈ 4.98 µg/mL); in series [2] (MRSA 3), 8.9 ± 0.3 µM (≈ 3.88 µg/mL); in series [2] (MRSA 4), 7.6 ± 0.2 µM (≈ 3.32 µg/mL); in [2] (MRSA 5) it was 3.8 ± 0.3 µM (≈ 1.66 µg/mL); in series [2] (MRSA 6), 11.2 ± 1.0 µM (≈ 4.89 µg/mL). For the same compound, the MIC came to 12.1 ± 0.7 µM (≈ 5.28 µg/mL) in series [2] (MRSA 7); 7.0 ± 1.0 µM (≈ 3.06 µg/mL) in [2] (MRSA 8); 12 ± 1 µM (≈ 5.24 µg/mL) in series [2] (MRSA 9); 12.6 ± 0.3 µM (≈ 5.5 µg/mL) in series [2] (MRSA 10); 14.0 ± 0.8 µM (≈ 6.11 µg/mL) in series [3]. Moreover, the “S. aureus WT ATCC 25923 (toxicity on bacteria)” value in [3] came out at 14.0 ± 0.8.
As for Gentamicin sulfate [reference compound], the IC50 in series [4] (MRSA 1) is <5 ng/mL; in series [4] (MRSA 2) it was <5 ng/mL; in [4] (MRSA 3), 6 ± 0.4 ng/mL; in series [5] it was <5 ng/mL; in series [6] (read-out: IC50), 920 ± 70 nM; in series [7] (Ent. Faecalis 14078), 11000 ± 1000 nM. Besides, the IC50 in series [7] (Ent. Faecalis 14115) was > 20000 nM; in series [8], 9 ± 1 ng/mL; in [9] (Strep. agalactiae 14150) it was > 20000 nM; in series [9] (Strep. agalactiae 14151), > 20000 nM; in series [9] (Strep. agalactiae 14153) it was > 20000 nM; in series [10] (Strep. pyogenes 14149), > 20000 nM. Moreover, the IC50 in [10] (Strep. pyogenes 14152) was > 20000 nM; in series [11] (Strep. pneumoniae 14070), 4000 ± 2000 nM; in series [11] (Strep. pneumoniae 14112), > 20000 nM; in series [11] (Strep. pneumoniae 14138), > 20000 nM; in [11] (Strep. pneumoniae 14144), > 20000 nM; in [11] (Strep. pneumoniae 14148) it was > 20000 nM. For the same compound, the IC50 in [12] (S. epidermidis 14069) is < 6 nM; in series [12] (S. epidermidis 14085) it was < 6 nM; in series [12] (S. epidermidis 14093), < 6 nM; in [12] (S. epidermidis 14134) it was 130 ± 10 nM; in series [12] (S. epidermidis 14143), 200 ± 30 nM; in [13] (S. aureus 14094), < 6 nM. The IC50 in series [13] (S. aureus 14108) was 16 ± 3 nM; in [13] (S. aureus 14118), 8 ± 1 nM; in series [13] (S. aureus 14154), < 16 nM. For the same compound, the MIC was <5 ng/mL in series [4] (MRSA 1); <5 ng/mL in [4] (MRSA 2); 19 ng/mL in series [4] (MRSA 3); <5 ng/mL in series [5]; 19 ng/mL in series [8]. In addition, the “Minimum Inhibitory Concentration (MIC)” value was “(9.1) μM” in series [6]; “(>20) μM” in [7] (Ent. Faecalis 14078); “(>20) μM” in series [7] (Ent. Faecalis 14115); “(>20) μM” in [9] (Strep. agalactiae 14150); “(>20) μM” in [9] (Strep. agalactiae 14151); “(>20) μM” in [9] (Strep. agalactiae 14153). Also, the “Minimum Inhibitory Concentration (MIC)” value in series [10] (Strep. pyogenes 14149), in series [10] (Strep. pyogenes 14152), in series [11] (Strep. pneumoniae 14070), in series [11] (Strep. pneumoniae 14112), in series [11] (Strep. pneumoniae 14138) and in [11] (Strep. pneumoniae 14144) was “(>20) μM” each time. Further, the “Minimum Inhibitory Concentration (MIC)” value is recorded as “(>20) μM” in series [11] (Strep. pneumoniae 14148); “(2.51) μM” in series [12] (S. epidermidis 14069); “(1.19) μM” in [12] (S. epidermidis 14085); “(1.25) μM” in series [12] (S. epidermidis 14093); “(0.8) μM” in series [12] (S. epidermidis 14134); “(>2) μM” in series [12] (S. epidermidis 14143). Besides, the “Minimum Inhibitory Concentration (MIC)” value in series [13] (S. aureus 14094) is on record as “(0.04) μM”; in series [13] (S. aureus 14108), “(0.05) μM”; in series [13] (S. aureus 14118), “(0.02) μM”; in series [13] (S. aureus 14154) it was “(0.04) μM”.
